# Results as given in patent publication US6770303B1, “Use of antifungal and/or antibacterial and/or antiviral compounds” (priority 1998, dated 2004).
# Entries after “also recorded” stand apart in the source; their conditions may differ. Where two headings read alike, the source gives them in different places.
# Assays:
# [1] = system: phenylalanine ammonia lyase (PAL); experiment: PAL activity in tobacco cell cultures after potentiator pretreatment and elicitation; format: cell-based, Nicotiana tabacum
# Description: Measurement of the activity of PAL (phenylalanine ammonia lyase): key enzyme in the phenylpropanoid pathway and more particularly in the lignification involved in defense reactions in plants (most particularly in monocotyledon plants).
# (§1) The cell suspensions used are suspensions of Nicotiana tabacum BY (bright yellow) obtained from Washington State University (Pullman, USA). They are cultured in the dark, at 24° C. with agitation (120 rpm) and subcultured every 7 days by transferring 10 ml of culture into 70 ml of fresh medium.
# (§2) The cells are pretreated 5 days after subculturing (end of the exponential growth phase) and elicited on the 6th day. Two hours before pretreatment, 10 ml of cells are transferred into 25 ml conical flasks. For the phenylalanine ammonia lyase (PAL) and lipoxygenase (LOX) activity analyses and the determination of the salicylic acid (SA), the cells are harvested at the desired time by filtration on Whatman 3 M paper, frozen in liquid nitrogen and stored at −80° C. until the analysis.
# The cells (0.5 g) are ground in 0.1 M pH 8.8 borate buffer in the presence of active charcoal and quartz. The grinding ratio is 1/5 (w/v). After centrifugation, 100 μl of cell extract are incubated for 1 h at 37° C. in the presence of 200 μl of 0.1 M pH 8.8 borate buffer and 100 μl of a mixture of 0.1 M pH 8.8 borate buffer and 300 μM L-phenylalanine (labelled and cold mixture); the final solution has a specific activity of 810,000 cpm/ml.
# The reaction is quenched by adding a few drops of 9 N H2SO4. 2 ml of H2O are added. The reaction products are extracted by adding 2 ml of an ether/cyclohexane mixture (1/1, v/v). Since the phenylalanine is insoluble in this mixture, the reaction is counted on 1 ml in the presence of “multi-purpose” scintillation liquid.
# (§3) In all cases, the pretreatment with the potentiator is carried out 18 hours before the elicitor treatment.
# The samples for analysing the physiological effects are taken 4 hours, 12 hours or 24 hours after elicitation. The controls corresponding to a potentiation alone or an elicitation alone are systematically present for each sample taken.
# salicylic acid (SA) = experiment: Salicylic acid (SA) accumulation in tobacco cell cultures; format: cell-based, Nicotiana tabacum
# Description: The samples (0.5 g) of tobacco cells or leaves are ground in liquid nitrogen and grinding is then continued in the presence of 0.8 ml of 90% methanol. A known amount of ^14C-labelled SA (1 nCi, 54 mCi/mol, Sigma) is then added in order to estimate the yield for the recovery of the endogenous SA. The amount of labelled SA added is less than the detection threshold for the analysis. […]
# The samples are brought to pH 2 by addition of 2 M HCl and are then heated at 80° C. for one hour. […] 20 ml of this mixture, to which are added 3 ml of scintillation liquid (Ready Gel, Beckmann), are taken for counting of the residual radioactivity, which allows calculation of the SA recovery yield. The contents of total SA determined correspond to the sum of the SA contents in free form and of the SA contents in conjugated form, the SA being released during the hydrolysis.
# The elution is programmed on a Waters HPLC system in an isocratic system for 10 min. […] The SA is quantified by fluorometry (λ excitation=315 nm, λ emission=405 nm). […] The amounts of SA injected are calculated by means of comparing the area of the peaks corresponding to SA with that of the standard molecule injected. The SA contents in the samples are then calculated, taking the recovery yield into account. […]
# lipoxygenase (LOX) = experiment: LOX activity in tobacco cell cultures after potentiator pretreatment and elicitation; format: cell-based, Nicotiana tabacum; conditions: for LOX activity relative to the corresponding control: 18 h pretreatment; for LOX activity, potentiator applied alone / Effect on LOX activity, potentiator in itself: no elicitor; for Effect on LOX activity, potentiator in itself: conclusion of Example 1
# Description: Measurement of the activity of LOX (lipoxygenase) which is a key enzyme in the synthesis of jasmonic acid, another signal molecule.
# as §1, §2
# The cells (250 mg) are ground in 0.5 ml of extraction buffer in the presence of quartz.
# The ground mixture is centrifuged for 15 min at 4° C. and 13,000 rpm. 2.87 ml of 0.1 M pH 6.8 Tris buffer are added to the cell extract, followed by 30 μl of 10 mM linolenic acid. After stirring, the change in the OD is monitored at 234 nm.
# as §3
# […] The controls corresponding to a potentiation alone or an elicitation alone are systematically present for each sample taken.
# Erysiphe cichoracerum = experiment: Open-field trial on powdery mildew of melon by foliar treatment; format: in vivo; conditions: Agrimer 540 1 l/ha
# Description: Open-field Trial on Powdery Mildew (Erysiphe cichoracerum) of Melon (Cucumis melo, Rochet Variety) by Foliar Treatment.
# (§4) The fungicide used is fosetyl-Al (WG applied at 1.25 kg/ha, i.e. 1000 g/ha of active material) and the algal extract (solution LC, 1 l/ha) is Agrimer 540 from the company Agrimer.
# All of these products are used at a dose of 1000 g/ha and the percentage of plants attacked by the disease is determined 15 days after two treatments T1 and T2 (carried out with an interval of 7 days).
# tobacco cell cultures = format: cell-based, Nicotiana tabacum
# Description: Fosetyl-Al and phosphorous acid have mainly been selected as potentiators in the biological experimentation, but, for reasons of toxicity of fosetyl-Al on tobacco cell cultures, we replaced it with fosetyl sodium in the cell tests.
# Erysiphe graminis = experiment: Open-field test on powdery mildew of wheat by foliar treatment; format: in vivo; conditions: winter wheat, fosetyl-Al 1000 g/ha a.m., Agrimer 540 1 l/ha
# Description: Open-field Test on Powdery Mildew (Erysiphe graminis) of Wheat (Triticum aestivum, Winter Variety) by Foliar Treatment.
# as §4
# All these products are used at a rate of 1000 g/ha and the percentage of plants attacked (% of leaves destroyed) by the disease is determined, on the one hand on a foliar stage treated semi-curatively (reading taken 22 days after the treatment T), and on the other hand on a foliar stage treated curatively (reading taken 27 days after the treatment T).
# [2] = cells potentiated and elicited with a pectin oligomer, compared with the other conditions
compound,measurement,setting,value
"CSC(=O)c1cccc2nnsc12 [BTH, reference compound]",PAL activity of potentiated and elicited cells (FIG. 21),[1]; [2],much higher
"OP(O)O [H3PO3, phosphorous acid]","Effect on synthesis of SA, potentiator in itself",salicylic acid (SA),do not in themselves have any effect
same,Rate of synthesis of SA relative to unconditioned cells,salicylic acid (SA),large increase
same,Effect of conditioning on PAL activity after elicitation,[1],strong stimulation of the PAL activity; also recorded: greater than that observed in the unconditioned cells
same,Effect of pretreatment on induction of PAL activity by the elicitor,[1],markedly amplifies the response to the elicitor
same,"Induction of PAL activity, potentiator applied alone",[1],No significant inductive effect; also recorded: do not in themselves have any effect
same,PAL activity of potentiated and elicited cells (FIG. 21),[1],much higher
same,PAL activity of pretreated cells versus unconditioned cells,[1],always greater than that observed in the unconditioned cells
same,PAL activity relative to the level of the unconditioned cells,[1],4 times
same,LOX activity relative to the corresponding control,lipoxygenase (LOX); measured 12 h after elicitation with 2 nM β-megaspermine,about 28 times
same,LOX activity relative to the corresponding control,lipoxygenase (LOX); measured 21 h after elicitation with 10 μg/ml oligosaccharide elicitor of β-glucan type,about 4 times
same,"LOX activity, potentiator applied alone",lipoxygenase (LOX); 30 h (18 h of pretreatment+12 h) after application,No inductive effect
same,"LOX activity, potentiator applied alone",lipoxygenase (LOX); 39 h (18 h of pretreatment+21 h) after application,mild inductive effect
same,"Effect on LOX activity, potentiator in itself",lipoxygenase (LOX),do not in themselves have any effect
"CCO[PH](=O)O [Fosetyl-Al, fosetyl-Al]","percentage of plants attacked by the disease, % at T2 + 15 days","Erysiphe cichoracerum; T2 7 days after T1, fosetyl-Al 1000 g/ha a.m., untreated control 95.0",80.0%
same,"percentage of plants attacked by the disease, % at T1 + 15 days","Erysiphe cichoracerum; fosetyl-Al 1000 g/ha a.m., untreated control 91.7",80.0%
same,Toxicity on tobacco cell cultures,tobacco cell cultures,toxicity
same,"% of leaves destroyed at T + 22, semi-curative",Erysiphe graminis; untreated control 91.1,77.8%
same,"% of leaves destroyed at T + 27, curative",Erysiphe graminis; untreated control 100,100%
CCO[PH](=O)O [fosetyl-Na],"Effect on synthesis of SA, potentiator in itself","salicylic acid (SA); no elicitor, conclusion of Example 1",do not in themselves have any effect
same,PAL activity of pretreated cells versus unconditioned cells,"[1]; 5 mM conditioning 18 h, then 2 nM β-megaspermine (FIG. 9)",always greater than that observed in the unconditioned cells
same,Effect of conditioning on PAL activity after elicitation,"[1]; 5 mM conditioning 18 h, then 20 μg/ml pectin oligomers",maintains the PAL activity at a high level 11 h after the elicitation
same,PAL activity of potentiated and elicited cells (FIG. 21),[1]; [2],much higher
same,"Induction of PAL activity, potentiator applied alone",[1]; no elicitor,No significant effect; also recorded: do not in themselves have any effect
same,"Effect on LOX activity, potentiator in itself",lipoxygenase (LOX),do not in themselves have any effect
